Results on ten compounds are retold here after ChEMBL document CHEMBL5518190, “Advancements in dual-target inhibitors of PI3K for tumor therapy: Clinical progress, development strategies, prospects” (Eur J Med Chem, 2024).

Converted amounts (≈) assume the structure as drawn.

The target of test [1] is T1, Phosphatidylinositol 4,5-bisphosphate 3-kinase catalytic subunit beta isoform (Homo sapiens, UniProt P42338). Nature of the test: Inhibition of human recombinant PI3Kbeta.
Test [2] deals with B16. Nature of the test: Antiproliferative activity against mouse B16 cells assessed as reduction in cell viability measured for 48 hrs by MTT assay. It counts as functional, cell-based. The settings on record: B16, 48 h.
Test [3] deals with T2, Histone deacetylase 8 (Homo sapiens, UniProt Q9BY41).
T2 sequence (Q9BY41 whole entry): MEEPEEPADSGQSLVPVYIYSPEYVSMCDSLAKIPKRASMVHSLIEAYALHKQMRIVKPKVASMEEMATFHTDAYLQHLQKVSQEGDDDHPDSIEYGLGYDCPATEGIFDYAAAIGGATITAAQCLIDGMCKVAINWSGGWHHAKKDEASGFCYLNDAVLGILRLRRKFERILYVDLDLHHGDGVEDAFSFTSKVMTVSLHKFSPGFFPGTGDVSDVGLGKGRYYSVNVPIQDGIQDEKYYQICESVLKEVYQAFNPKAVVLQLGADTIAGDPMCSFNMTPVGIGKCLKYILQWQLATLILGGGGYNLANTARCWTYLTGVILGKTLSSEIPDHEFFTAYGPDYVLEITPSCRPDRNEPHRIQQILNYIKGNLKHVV
Nature of the test: Inhibition of HDAC8 (unknown origin) by fluorescence based assay.

A short description of test [4]: Cytotoxicity against human SK-ES cells assessed as reduction in cell viability incubated for 48 hrs by CellTiter-Blue reagent based […] assay. It is filed as functional.
Test [5] can be described thus: Antiproliferative activity against human A2780cis cells assessed as inhibition of cell growth incubated for 72 hrs by cell-titer glo assay. It counts as functional, cell-based.
Test [6] concerns the target T3, Phosphatidylinositol 4,5-bisphosphate 3-kinase catalytic subunit alpha isoform (Homo sapiens, UniProt P42336). Nature of the test: Inhibition of PI3Kalpha (unknown origin) using PIP2 as substrate preincubated for 15 mins followed by substrate addition and measured after 1 hr by HTRF assay.
For test [7], the target named is T1, Phosphatidylinositol 4,5-bisphosphate 3-kinase catalytic subunit beta isoform. Nature of the test: Inhibition of PI3Kbeta (unknown origin) using […] as substrate preincubated for 15 mins followed by substrate addition and measured after 1 hr by HTRF assay.
In test [8] the target is T4, Phosphatidylinositol 4,5-bisphosphate 3-kinase catalytic subunit gamma isoform (Homo sapiens, UniProt P48736). Nature of the test: Inhibition of PI3Kgamma (unknown origin) using […] as substrate preincubated for 15 mins followed by substrate addition and measured after 1 hr by HTRF assay.
Test [9] concerns the target T5, Phosphatidylinositol 4,5-bisphosphate 3-kinase catalytic subunit delta isoform (Homo sapiens, UniProt O00329).
T5 sequence (O00329 whole entry): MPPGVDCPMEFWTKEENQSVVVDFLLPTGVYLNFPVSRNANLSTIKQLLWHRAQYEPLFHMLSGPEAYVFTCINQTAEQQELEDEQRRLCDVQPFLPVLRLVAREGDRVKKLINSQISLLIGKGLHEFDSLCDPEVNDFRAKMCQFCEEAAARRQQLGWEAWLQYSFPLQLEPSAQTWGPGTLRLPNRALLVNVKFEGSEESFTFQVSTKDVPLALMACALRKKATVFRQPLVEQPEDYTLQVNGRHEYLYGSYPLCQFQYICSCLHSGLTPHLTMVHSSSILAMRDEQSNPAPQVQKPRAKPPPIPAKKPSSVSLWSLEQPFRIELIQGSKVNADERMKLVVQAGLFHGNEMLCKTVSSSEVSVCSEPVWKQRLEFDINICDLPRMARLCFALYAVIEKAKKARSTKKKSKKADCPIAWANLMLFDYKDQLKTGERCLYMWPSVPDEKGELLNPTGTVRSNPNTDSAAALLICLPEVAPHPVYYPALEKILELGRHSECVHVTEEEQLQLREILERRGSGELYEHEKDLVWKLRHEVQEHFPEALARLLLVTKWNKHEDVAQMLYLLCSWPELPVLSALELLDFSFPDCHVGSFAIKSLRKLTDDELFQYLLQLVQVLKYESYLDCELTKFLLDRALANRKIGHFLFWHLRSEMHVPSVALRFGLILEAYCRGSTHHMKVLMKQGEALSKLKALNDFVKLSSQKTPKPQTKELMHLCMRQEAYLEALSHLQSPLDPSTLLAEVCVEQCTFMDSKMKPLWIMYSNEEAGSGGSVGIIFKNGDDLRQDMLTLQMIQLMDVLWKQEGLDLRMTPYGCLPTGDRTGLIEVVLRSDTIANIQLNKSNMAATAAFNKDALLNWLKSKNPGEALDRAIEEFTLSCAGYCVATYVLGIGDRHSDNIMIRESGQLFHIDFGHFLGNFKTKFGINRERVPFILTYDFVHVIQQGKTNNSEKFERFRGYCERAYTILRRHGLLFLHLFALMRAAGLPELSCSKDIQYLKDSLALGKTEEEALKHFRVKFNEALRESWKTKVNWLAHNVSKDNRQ
Nature of the test: Inhibition of PI3Kdelta (unknown origin) using PIP2 as substrate preincubated for 15 mins followed by substrate addition and measured after 1 hr by HTRF assay.

Test [10] addresses Epidermal growth factor receptor (Homo sapiens, UniProt P00533). Nature of the test: Inhibition of EGFR (unknown origin).
Test [11] concerns the target Mitogen-activated protein kinase 1 (Homo sapiens) (UniProt P28482). Nature of the test: Inhibition of ERK2 (unknown origin) at 1 uM relative to control by ADP-Glo assay.
For test [12], the target named is T3, Phosphatidylinositol 4,5-bisphosphate 3-kinase catalytic subunit alpha isoform. Nature of the test: Inhibition of PI3Kalpha (unknown origin) at 1 uM by kinase-glo luminescent assay relative to control.
Test [13] addresses Histone deacetylase 1 (Homo sapiens, UniProt Q13547). Nature of the test: Inhibition of HDAC1 (unknown origin) by fluorescence based assay.
Test [14] has as its target T3, Phosphatidylinositol 4,5-bisphosphate 3-kinase catalytic subunit alpha isoform. Nature of the test: Inhibition of full length wild type PI3Kalpha (unknown origin).
Test [15] relates to A-375. Nature of the test: Antiproliferative activity against human A-375 cells assessed as reduction in cell viability measured after 48 hrs by MTT assay. It is filed as functional, cell-based. Conditions: A-375, 48 h.
The target in test [16] is Serine/threonine-protein kinase mTOR (Homo sapiens, UniProt P42345).
In test [17] the target is T3, Phosphatidylinositol 4,5-bisphosphate 3-kinase catalytic subunit alpha isoform.
The target in test [18] is T4, Phosphatidylinositol 4,5-bisphosphate 3-kinase catalytic subunit gamma isoform.
The target in test [19] is T2, Histone deacetylase 8. Nature of the test: Inhibition of HDAC8 (unknown origin) using Fluoro-Substrate Peptide as substrate by fluorescence assay.

T3 sequence (P42336 whole entry, canonical isoform): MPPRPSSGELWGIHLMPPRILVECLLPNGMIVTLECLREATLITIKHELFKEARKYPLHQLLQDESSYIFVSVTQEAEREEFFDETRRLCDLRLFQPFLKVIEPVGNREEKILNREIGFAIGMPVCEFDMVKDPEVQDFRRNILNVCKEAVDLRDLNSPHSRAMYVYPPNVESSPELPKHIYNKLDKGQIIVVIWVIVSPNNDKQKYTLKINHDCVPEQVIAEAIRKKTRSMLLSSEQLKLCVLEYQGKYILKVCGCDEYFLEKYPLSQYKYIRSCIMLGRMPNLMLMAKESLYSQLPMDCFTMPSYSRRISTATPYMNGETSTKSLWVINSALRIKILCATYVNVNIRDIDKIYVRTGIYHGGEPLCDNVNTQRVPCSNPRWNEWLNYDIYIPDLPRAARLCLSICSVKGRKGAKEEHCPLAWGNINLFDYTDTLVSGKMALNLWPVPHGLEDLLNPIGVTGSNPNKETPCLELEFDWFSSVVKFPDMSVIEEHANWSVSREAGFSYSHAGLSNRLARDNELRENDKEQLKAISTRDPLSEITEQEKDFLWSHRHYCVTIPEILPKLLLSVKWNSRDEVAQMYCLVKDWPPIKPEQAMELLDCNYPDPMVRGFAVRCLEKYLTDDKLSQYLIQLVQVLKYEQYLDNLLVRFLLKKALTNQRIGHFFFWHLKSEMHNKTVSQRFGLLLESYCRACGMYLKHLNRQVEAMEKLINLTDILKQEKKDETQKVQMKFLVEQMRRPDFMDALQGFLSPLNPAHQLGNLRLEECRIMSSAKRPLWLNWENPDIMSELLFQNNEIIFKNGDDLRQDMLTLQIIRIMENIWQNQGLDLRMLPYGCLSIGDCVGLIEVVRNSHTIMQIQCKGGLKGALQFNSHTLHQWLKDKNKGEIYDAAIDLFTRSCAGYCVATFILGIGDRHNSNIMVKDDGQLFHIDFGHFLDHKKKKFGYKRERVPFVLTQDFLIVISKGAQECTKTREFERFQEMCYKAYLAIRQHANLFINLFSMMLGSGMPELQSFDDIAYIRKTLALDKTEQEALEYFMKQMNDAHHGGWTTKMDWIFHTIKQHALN
T4 sequence (P48736 whole entry, canonical isoform): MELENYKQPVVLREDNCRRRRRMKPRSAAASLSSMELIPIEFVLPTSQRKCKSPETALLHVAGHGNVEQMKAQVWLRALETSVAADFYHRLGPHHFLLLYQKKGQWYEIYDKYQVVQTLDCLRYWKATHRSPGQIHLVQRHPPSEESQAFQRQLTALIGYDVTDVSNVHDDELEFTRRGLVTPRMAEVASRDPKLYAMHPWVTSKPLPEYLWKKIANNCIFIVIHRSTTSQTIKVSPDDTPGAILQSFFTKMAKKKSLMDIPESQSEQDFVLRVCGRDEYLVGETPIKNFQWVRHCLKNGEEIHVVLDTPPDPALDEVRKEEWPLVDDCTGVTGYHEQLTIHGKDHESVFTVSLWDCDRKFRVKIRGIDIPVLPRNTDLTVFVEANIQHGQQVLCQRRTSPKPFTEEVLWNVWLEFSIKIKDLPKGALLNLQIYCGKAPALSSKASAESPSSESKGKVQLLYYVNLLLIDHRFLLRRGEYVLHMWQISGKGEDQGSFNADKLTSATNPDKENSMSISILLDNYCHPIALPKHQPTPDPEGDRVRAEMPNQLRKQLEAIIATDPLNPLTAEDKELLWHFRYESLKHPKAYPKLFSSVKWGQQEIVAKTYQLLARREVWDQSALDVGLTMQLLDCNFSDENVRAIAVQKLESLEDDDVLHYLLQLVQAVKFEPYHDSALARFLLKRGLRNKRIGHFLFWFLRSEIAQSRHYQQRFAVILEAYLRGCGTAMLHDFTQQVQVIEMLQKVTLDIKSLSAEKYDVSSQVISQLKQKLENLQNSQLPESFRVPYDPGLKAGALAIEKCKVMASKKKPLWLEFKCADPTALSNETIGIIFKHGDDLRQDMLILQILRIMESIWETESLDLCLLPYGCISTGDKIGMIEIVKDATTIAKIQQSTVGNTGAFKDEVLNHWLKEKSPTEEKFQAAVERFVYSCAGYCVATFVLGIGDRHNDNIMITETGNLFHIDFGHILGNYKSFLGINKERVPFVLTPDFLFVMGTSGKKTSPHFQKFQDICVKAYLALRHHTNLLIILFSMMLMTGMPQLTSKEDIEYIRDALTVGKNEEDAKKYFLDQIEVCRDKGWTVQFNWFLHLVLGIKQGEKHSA
T1 sequence (P42338 whole entry, canonical isoform): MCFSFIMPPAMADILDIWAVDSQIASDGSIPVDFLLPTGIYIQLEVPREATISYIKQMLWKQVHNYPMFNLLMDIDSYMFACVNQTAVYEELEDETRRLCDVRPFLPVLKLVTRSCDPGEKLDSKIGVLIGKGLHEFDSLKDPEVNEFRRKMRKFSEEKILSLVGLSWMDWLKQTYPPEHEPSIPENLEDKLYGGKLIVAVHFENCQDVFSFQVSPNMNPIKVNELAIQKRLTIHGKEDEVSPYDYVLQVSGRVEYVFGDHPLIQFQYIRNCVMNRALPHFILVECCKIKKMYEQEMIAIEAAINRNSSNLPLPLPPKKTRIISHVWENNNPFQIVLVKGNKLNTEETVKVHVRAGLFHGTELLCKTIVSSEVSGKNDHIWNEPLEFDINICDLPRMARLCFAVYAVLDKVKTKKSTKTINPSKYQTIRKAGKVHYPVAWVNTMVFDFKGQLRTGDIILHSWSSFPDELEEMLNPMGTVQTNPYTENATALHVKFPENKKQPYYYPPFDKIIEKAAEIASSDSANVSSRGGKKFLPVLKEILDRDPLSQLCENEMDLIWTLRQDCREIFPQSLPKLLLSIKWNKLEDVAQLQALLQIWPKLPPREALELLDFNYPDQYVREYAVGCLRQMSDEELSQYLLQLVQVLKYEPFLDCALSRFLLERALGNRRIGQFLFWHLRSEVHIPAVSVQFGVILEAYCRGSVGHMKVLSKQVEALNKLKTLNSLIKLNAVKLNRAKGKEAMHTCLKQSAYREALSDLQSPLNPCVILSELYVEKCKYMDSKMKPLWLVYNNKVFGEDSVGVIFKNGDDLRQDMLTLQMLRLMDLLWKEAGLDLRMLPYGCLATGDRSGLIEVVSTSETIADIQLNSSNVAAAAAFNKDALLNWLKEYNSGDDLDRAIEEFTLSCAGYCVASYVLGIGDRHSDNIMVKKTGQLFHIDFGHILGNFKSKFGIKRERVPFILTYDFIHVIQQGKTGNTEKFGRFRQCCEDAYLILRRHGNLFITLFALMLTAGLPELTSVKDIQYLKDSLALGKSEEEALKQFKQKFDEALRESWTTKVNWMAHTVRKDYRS
Sequence of Histone deacetylase 1 (Q13547 whole entry, canonical isoform): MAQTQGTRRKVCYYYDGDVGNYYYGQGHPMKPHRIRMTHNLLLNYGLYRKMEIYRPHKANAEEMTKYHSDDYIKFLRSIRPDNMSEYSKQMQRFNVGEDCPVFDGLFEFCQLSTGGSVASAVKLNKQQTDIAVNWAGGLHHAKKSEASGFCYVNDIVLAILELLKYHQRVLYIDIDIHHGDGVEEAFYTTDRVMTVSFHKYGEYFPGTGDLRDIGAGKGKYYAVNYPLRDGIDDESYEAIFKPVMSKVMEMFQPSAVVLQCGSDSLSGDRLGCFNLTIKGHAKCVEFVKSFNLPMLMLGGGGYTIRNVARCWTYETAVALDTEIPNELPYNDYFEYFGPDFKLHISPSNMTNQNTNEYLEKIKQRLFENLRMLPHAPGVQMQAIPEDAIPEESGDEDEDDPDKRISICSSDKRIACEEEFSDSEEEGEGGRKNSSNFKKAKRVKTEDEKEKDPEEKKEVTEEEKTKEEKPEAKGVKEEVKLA
Sequence of Mitogen-activated protein kinase 1 (Homo sapiens) (P28482 whole entry, canonical isoform): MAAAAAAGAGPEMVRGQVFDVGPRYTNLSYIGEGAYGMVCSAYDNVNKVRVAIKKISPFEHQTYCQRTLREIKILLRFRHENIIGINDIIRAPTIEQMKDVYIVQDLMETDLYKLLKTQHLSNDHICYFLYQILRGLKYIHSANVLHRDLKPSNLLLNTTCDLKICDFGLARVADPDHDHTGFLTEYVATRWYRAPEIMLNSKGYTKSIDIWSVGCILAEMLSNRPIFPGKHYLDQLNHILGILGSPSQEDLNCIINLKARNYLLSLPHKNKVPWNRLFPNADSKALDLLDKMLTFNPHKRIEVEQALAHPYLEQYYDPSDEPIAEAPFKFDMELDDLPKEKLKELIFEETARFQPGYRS

On to `O=C(Nc1ncc2ncc(-c3cn[nH]c3)cc2n1)NC1CCCC1`, for which the IC50 in test [1] was 5 nM.
Regarding `CC(C)c1cc(C(=O)N2CCc3c(sc4ncnc(N5CCOCC5)c34)C2)c(O)cc1O`, in test [2], the IC50 is 0.47 µg/mL (≈ 1.03 µM).
On to `O=C(NO)c1ccc(/C=N/NC(=O)c2cc(N3CCOCC3)nc(-c3cccc4[nH]ncc34)n2)cc1`, for which the midpoint of inhibition in [3], the IC50, lay at 66.5 nM.
On to `CC(C)OC(=O)N1CCC(Nc2ncnc3ccc(-c4cnc(Cl)c(NS(=O)(=O)c5ccc(F)cc5F)c4)nc23)CC1`, for which the IC50 is 99.5 nM in test [4] and 213 nM in test [5].
On to `CCOC(=O)c1nn(-c2ccccc2)c(=O)c2c(N)c(C#N)c(-c3cccs3)cc12`, for which the IC50 in test [6] was 10500 nM; in test [7] it was 32700 nM; in [8] it was 30000 nM; in test [9] it was 7470 nM; in test [10], 114000 nM.
In the case of `Cn1cc(-c2n[nH]c3nc(NC(=O)NC4CCCC4)ncc23)cn1`, the inhibition in [11] is 79.5%; in [12] it was 4%.
`CC(C)[C@H]1NC(=O)C[C@H]2/C=C/CCSSC[C@@H](NC1=O)C(=O)N[C@H](Cc1ccccc1)C(=O)NCC(=O)O2`: the IC50 in test [13] amounted to 2.5 nM; in test [14], 27300 nM.
As for `CC(C)c1cc(C(=O)N2CCc3c(sc4nc(-c5cccnc5)nc(N5CCOCC5)c34)C2)c(O)cc1O`, in test [15], the IC50 amounted to 2.29 µg/mL (≈ 4.31 µM).
In the case of `CCn1c(=O)c(-c2cc[nH]n2)cc2c(C)nc(N)nc21` [VOXTALISIB], the IC50 in test [16] worked out at 150 nM.
Consider `COc1c(OCCCCCC(=O)NO)ccc2c1N=C(NC(=O)c1ccccc1)N1CCN=C21`, for which the IC50 in test [17] was 2.98 nM; in test [18] it was 25 nM; in test [19], 153 nM.
